Test results from patent US9938240B2, “Fluorinated derivatives of 3-hydroxypyridin-4-ones” (Apotex Technologies Inc., priority 2009, dated 2018).

What was measured:
[1] = Distribution coefficient determination, D7.4 (1-octanol / K2HPO4 buffer); assay type: physicochemical; conditions: 1-octanol / K2HPO4 buffer 50 mM pH 7.4; for logD: read-out: Log D7.4
Method: K2HPO4 buffer (50 mM, pH=7.4) and 1-octanol were used as the aqueous phase and the organic phase, respectively. The K2HPO4 buffer and 1-octanol were mixed, and pre-saturated with each other before use.
In a typical experiment, an aqueous solution of Apo6995 (3-hydroxy-2-methyl-1-(2,2,2-trifluoroethyl)pyridin-4(1H)-one) was prepared by weighing out 3 mg of the compound into a 10-mL test-tube. It was then mixed with K2HPO4 buffer (2 mL) and sonicated for 30 minutes with frequent vortexing. The solution was then filtered through HPLC syringe filter (4 mm PVDF syringe filter 0.45 μM) to obtain the aqueous solution.
One mL of this aqueous solution was pipetted out into another 10-mL test-tube and mixed with 1 mL of 1-octanol. The mixture was then vortexed for 1 hour. The solution was centrifuged at 2000 rpm for 10 minutes. A small amount of the lower aqueous layer was carefully pipetted out and analyzed by HPLC to obtain the peak height (HF). The distribution coefficient, D7.4, was calculated using the following equation: D7.4=(HI−HF)/HF.

[2] = Oral cassette dosing PK/BBB studies; assay type: in vivo, male Sprague-Dawley rats; conditions: oral cassette dosing, male Sprague-Dawley rats; for AUC brain* / AUC: AUC normalized to 1 mg/kg dose; for Kp / AUC: rat; for Kp: brain and plasma, read-out: AUC brain/AUC plasma; for AUC: plasma
Method: In-vivo pharmacokinetic (PK) and blood brain barrier (BBB) studies were conducted in male Sprague-Dawley rats using cassette dosing via oral administration. […] No. 15, pp. 652-658.

[3] = test system: SH-SY5Y human neuroblastoma cells; conditions: for CC2 (cytotoxic concentration): H2O2-treated cells, viability below 80%; for CC1 (cytotoxic concentration): absence of H2O2, viability below 80%
Description: Hydrogen peroxide (H2O2) is a major ROS (reactive oxidative species), which causes oxidative stress, and can induce apoptosis in many different cell types. One of the CNS drug design strategies is to use compounds with antioxidant properties as a possible treatment of both acute and chronic neurodegenerative diseases (Kang et al. Bioorganic & Medicinal Chemistry Letters, 2004, 14, 2261-2264). This involves testing the compounds of this invention for their protective effect against oxidative stress-induced cell death in SH-SY5Y human neuroblastoma cells. SH-SY5Y human neuroblastoma cells were cultured in DMEM (ATCC)/F12 (Cellgro) with 10% FBS. The cells were plated at 30,000 cells/cm^2 and grown for 1 day in the regular culture media prior to compound addition. Cells were routinely treated with the test compound, at a pre-determined range of concentrations, in the presence or absence of 50 μM hydrogen peroxide in a basal medium containing no FBS for 16-22 h. Cell viability was then measured using the routine MTT method (Mosmann, T., Rapid Colorimetric Assay for Cellular Growth and Survival: Application to Proliferation and Cytotoxicity Assays”. J. Immunol. Meth. 1983, 65, 55-63).
For data analysis, cell viability relative to control not treated with either H2O2 or the test compound, was plotted against the compound concentration. […] Cytotoxicity of the test compound was assessed in the absence of hydrogen peroxide.

[4] = test system: human neuroblastoma MC-65 cells; experiment: cells; conditions: for EC100 / minimal effective concentration: Homo sapiens, MC65, 48 h; for EC100: read-out: EC100 (maximum effective concentration); for minimal effective concentration: read-out: TH (threshold protective concentration); for CC2 (cytotoxic concentration): MC-65, cultured without tetracycline; for CC2 (cytotoxic concentration) / CC1 (cytotoxic concentration): viability below 80%; for CC1 (cytotoxic concentration): MC-65, presence of TET
Method: In this assay, human neuroblastoma cells (MC-65 cells) are genetically engineered to conditionally express amyloid β peptide (Aβ). The Aβ production is suppressed by tetracycline (TET+) presence in culture medium, and its production is activated when TET is withdrawn (TET−). The activation of Aβ production results in cell death “MC-65 suicide”.
Protective effect of compounds against edogenously produced amyloid beta (Aβ) was assessed in human neuroblastoma MC-65 cells. MC-65 cells have been stably transformed to conditionally express high levels of a partial amyloid precursor (AP) fusion protein (Bryce Sopher et al., Brain Res Mol Brain Res. 1994, 207-17.). This protein is further proteolitically processed in the cells to form a set of AP-derived Aβ peptides. […] Activity of the promoter is tightly regulated by the presence of the antibiotic tetracycline (TET) in the culture medium. In the presence of TET (TET+), the promoter is in the basal state and no amyloid beta peptide is synthesized. In the absence of TET (TET−) the promoter is in induced state, resulting in the accumulation of Aβ peptides in the cells, degenerative changes in cell morphology and decreased survival.
Transfected human neuroblastoma cells (MC-65) were cultured in DMEM (ATCC) supplemented with non-essential amino acids and 10% FBS (VWR) in the presence of TET (1 μg/mL). For the experiment, the cells were plated at 35,000 cells/cm^2 and grown for 1 day in the regular culture media prior to compound addition. On the day of the assay, culture supernatant was removed from the wells and cells were thoroughly washed once with the compound incubation matrix containing no FBS and no TET. MC-65 cells were treated with a test compound at pre-determined range of concentrations in a basal medium containing no FBS and in the absence or presence of 1 μg/mL TET for approximately 48 h. Cell viability was then measured using the MTT method.
For data analysis, cell viabilities relative to the control not treated with a test compound and maintained in the presence of TET were plotted against the compound concentration. […] Cytotoxicity of the test compound was assessed in the cells maintained in the presence of TET.

SMILES: Cc1c(O)c(=O)ccn1CC(F)(F)F [Apo6995, 3-hydroxy-2-methyl-1-(2,2,2-trifluoroethyl)pyridin-4(1H)-one]
- D7.4 [1]: 2.51
- logD [1]: 0.4
- AUC brain* [2]: 300 ng·h/mL
- Kp [2]: 1.2
- AUC [2]: 260 ng·h/mL
- CC2 (cytotoxic concentration) [3]: 320 µM
- CC1 (cytotoxic concentration) [3]: 320 µM
- EC100 [4]: 20 µM
- minimal effective concentration [4]: 0.1 µM
- CC2 (cytotoxic concentration) [4]: 80 µM
- CC1 (cytotoxic concentration) [4]: 80 µM

SMILES: Cc1c(Cl)c(=O)c(O)c(CC(F)(F)F)n1C [Apo7040, 3-chloro-5-hydroxy-1,2-dimethyl-6-(2,2,2-trifluoroethyl)pyridin-4(1H)-one]
- D7.4 [1]: 8.76
- logD [1]: 0.94
- CC2 (cytotoxic concentration) [3]: >640 µM
- CC1 (cytotoxic concentration) [3]: 160 µM
- EC100 [4]: 40 µM
- minimal effective concentration [4]: 1 µM
- CC2 (cytotoxic concentration) [4]: 80 µM
- CC1 (cytotoxic concentration) [4]: 40 µM

SMILES: CN(C)C(c1c(O)c(=O)c(Cl)cn1C)C(F)(F)F (centres unmarked) [Apo7060, 5-chloro-2-[1-(dimethylamino)-2,2,2-trifluoroethyl]-3-hydroxy-1-methylpyridin-4(1H)-one]
- D7.4 [1]: 4.93
- logD [1]: 0.69
- CC2 (cytotoxic concentration) [3]: >640 µM
- CC1 (cytotoxic concentration) [3]: 80 µM
- EC100 [4]: 10 µM
- minimal effective concentration [4]: 1 µM
- CC2 (cytotoxic concentration) [4]: 20 µM
- CC1 (cytotoxic concentration) [4]: 40 µM

SMILES: Cc1cc(=O)c(O)c(CN(C)C)n1CC(F)(F)F [Apo7065, 2-[(dimethylamino)methyl]-3-hydroxy-6-methyl-1-(2,2,2-trifluoroethyl)pyridin-4(1H)-one]
- D7.4 [1]: 4.93
- logD [1]: 0.69
- CC2 (cytotoxic concentration) [3]: >640 µM
- CC1 (cytotoxic concentration) [3]: 40 µM

SMILES: Cn1cc(Cl)c(=O)c(O)c1CC(F)(F)F [Apo7066, 5-chloro-3-hydroxy-1-methyl-2-(2,2,2-trifluoroethyl)pyridin-4(1H)-one]
- D7.4 [1]: 4.69
- logD [1]: 0.67
- CC2 (cytotoxic concentration) [3]: 160 µM
- CC1 (cytotoxic concentration) [3]: 160 µM
- EC100 [4]: 10 µM
- minimal effective concentration [4]: 0.1 µM
- CC2 (cytotoxic concentration) [4]: 80 µM
- CC1 (cytotoxic concentration) [4]: 80 µM

SMILES: Cc1c(O)c(=O)ccn1CC(F)F [Apo7069, 1-(2,2-difluoroethyl)-3-hydroxy-2-methylpyridin-4(1H)-one]
- D7.4 [1]: 0.66
- Log D7.4 [1]: −0.18
- CC2 (cytotoxic concentration) [3]: >640 µM
- CC1 (cytotoxic concentration) [3]: 80 µM
- EC100 [4]: 40 µM
- minimal effective concentration [4]: 0.1 µM
- CC2 (cytotoxic concentration) [4]: 80 µM
- CC1 (cytotoxic concentration) [4]: 80 µM

SMILES: Cn1ccc(=O)c(O)c1CC(F)F [Apo7080, 2-(2,2-difluoroethyl)-3-hydroxy-1-methylpyridin-4(1H)-one]
- AUC brain* [2]: 700 ng·h/mL
- Kp [2]: 0.76
- AUC [2]: 920 ng·h/mL
- CC2 (cytotoxic concentration) [3]: >640 µM
- CC1 (cytotoxic concentration) [3]: 40 µM
- EC100 [4]: 10 µM
- minimal effective concentration [4]: 0.1 µM
- CC2 (cytotoxic concentration) [4]: 40 µM
- CC1 (cytotoxic concentration) [4]: 40 µM

SMILES: Cc1cc(=O)c(O)c(CN(C)C)n1CC(F)F [Apo7083, 1-(2,2-difluoroethyl)-2-[(dimethylamino)methyl]-3-hydroxy-6-methylpyridin-4(1H)-one]
- D7.4 [1]: 1.70
- logD [1]: 0.23
- EC100 [4]: 10 µM
- minimal effective concentration [4]: 0.1 µM
- CC2 (cytotoxic concentration) [4]: 40 µM
- CC1 (cytotoxic concentration) [4]: 40 µM

SMILES: Cn1ccc(=O)c(O)c1C(C(F)F)N1CCCCC1 (centres unmarked) [Apo7319, 2-(2,2-difluoro-1-(piperidin-1-yl)ethyl)-3-hydroxy-1-methylpyridin-4(1H)-one]
- CC2 (cytotoxic concentration) [3]: 320 µM
- CC1 (cytotoxic concentration) [3]: 320 µM
- EC100 [4]: 10 µM
- minimal effective concentration [4]: 1 µM
- CC2 (cytotoxic concentration) [4]: 40 µM
- CC1 (cytotoxic concentration) [4]: 40 µM

SMILES: Cc1cc(=O)c(O)c(C(N2CCOCC2)C(F)(F)F)n1C (centres unmarked) [Apo7333, 3-hydroxy-1,6-dimethyl-2-(2,2,2-trifluoro-1-morpholinoethyl)pyridin-4(1H)-one]
- CC2 (cytotoxic concentration) [3]: 320 µM
- CC1 (cytotoxic concentration) [3]: 320 µM
- EC100 [4]: 10 µM
- minimal effective concentration [4]: 1 µM
- CC2 (cytotoxic concentration) [4]: 40 µM
- CC1 (cytotoxic concentration) [4]: 20 µM

SMILES: Cc1cc(=O)c(O)c(C(N2CCN(Cc3ccccc3)CC2)C(F)(F)F)n1C (centres unmarked) [Apo7334, 2-(1-(4-benzylpiperazin-1-yl)-2,2,2-trifluoroethyl)-3-hydroxy-1,6-dimethylpyridin-4(1H)-one]
- CC2 (cytotoxic concentration) [3]: 320 µM
- CC1 (cytotoxic concentration) [3]: 40 µM
- EC100 [4]: 10 µM
- minimal effective concentration [4]: 1 µM
- CC2 (cytotoxic concentration) [4]: 20 µM
- CC1 (cytotoxic concentration) [4]: 10 µM

SMILES: Cc1cc(=O)c(O)c(C(N2CCN(c3ccccc3)CC2)C(F)(F)F)n1C (centres unmarked) [Apo7335, 3-hydroxy-1,6-dimethyl-2-(2,2,2-trifluoro-1-(4-phenylpiperazin-1-yl)ethyl)pyridin-4(1H)-one]
- CC2 (cytotoxic concentration) [3]: 80 µM
- CC1 (cytotoxic concentration) [3]: 80 µM
- EC100 [4]: 10 µM
- minimal effective concentration [4]: 1 µM
- CC2 (cytotoxic concentration) [4]: 20 µM
- CC1 (cytotoxic concentration) [4]: 20 µM

SMILES: Cc1cc(=O)c(O)c(C(N2CCN(c3ccccn3)CC2)C(F)(F)F)n1C (centres unmarked) [Apo7336, 3-hydroxy-1,6-dimethyl-2-(2,2,2-trifluoro-1-(4-(pyridin-2-yl)piperazin-1-yl)ethyl)pyridin-4(1H)-one]
- CC2 (cytotoxic concentration) [3]: 80 µM
- CC1 (cytotoxic concentration) [3]: 80 µM
- EC100 [4]: 10 µM
- minimal effective concentration [4]: 1 µM
- CC2 (cytotoxic concentration) [4]: 20 µM
- CC1 (cytotoxic concentration) [4]: 10 µM

SMILES: Cc1cc(=O)c(O)c(CN2CCOCC2)n1CC(F)(F)F [Apo7434, 3-hydroxy-6-methyl-2-(morpholinomethyl)-1-(2,2,2-trifluoroethyl)pyridin-4(1H)-one]
- CC2 (cytotoxic concentration) [3]: 320 µM
- CC1 (cytotoxic concentration) [3]: 320 µM
- EC100 [4]: 20 µM
- minimal effective concentration [4]: 1 µM
- CC2 (cytotoxic concentration) [4]: 40 µM
- CC1 (cytotoxic concentration) [4]: 40 µM

SMILES: Oc1c(I)cc(Cl)c2cccnc12 [Clioquinol, reference compound]
- AUC brain* [2]: 42 ng·h/mL
- Kp [2]: 1.5
- AUC [2]: 28 ng·h/mL
